Laboratory results published in patent publication US12435026B2, “Solabegron zwitterion and uses thereof” (B3AR THERAPEUTICS, INC., priority 2015, dated 2025).

Key:
[1] = Solubility among forms of solabegron; type: physicochemical
Excerpt: After extensive effort, applicants have newly discovered two crystalline forms of solabegron zwitterion. One form, form I, is an anhydrous crystalline form and is characterized by an x-ray powder diffraction pattern having peaks expressed in degrees 2θ (±2) at 6.2, 12.5; 18.8; 20.6; and 25.2. A second form, form II is a hydrate of isopropanol solvate and is characterized by an x-ray powder diffraction pattern having peaks expressed in degrees 2θ (±2) at 17.6, 18.7, 19.6, 20.1, 20.5, 23.7, and 25.8. (See EXAMPLE 3 and FIGS. 7, 12 and 14). […] After isolation the solabegron crystals can be dissolved and then crystallized to the solabegron HCL salt form, which is currently being investigated clinically. Of equal importance, the pharmaceutical compositions of solabegron zwitterion disclosed herein could be used as the active ingredient clinically, replacing the need for the HCl salt form of solabegron.

[2] = Relative stability of solabegron zwitterion Forms I and II via slurry conditioning in IPA/H2O; type: physicochemical; conditions: for relative stability of crystal forms: slurry conditioning in IPA/H2O with different ratio (FIG. 10)
Procedure: The relative stability of solabegron zwitterion Forms I and II was evaluated via slurry conditioning of either solabegron zwitterion Form I or a mixture of solabegron zwitterion Forms I and II in IPA/H2O with different ratio, for a) confirmation of relative stability of the two solabegron zwitterion forms, and b) rational process design and control. The table in FIG. 10 lists the testing conditions and results.

[3] = tested on: women with moderate to severe OAB; conditions: Ohlstein et al., Eur. Urol. 2012; cited from earlier work

O=C(O)c1cccc(-c2cccc(NCCNC[C@H](O)c3cccc(Cl)c3)c2)c1 [Solabegron zwitterion]
solubility relative to other forms of solabegron [1]: least soluble form of solabegron

O=C(O)c1cccc(-c2cccc(NCCNC[C@H](O)c3cccc(Cl)c3)c2)c1 [solabegron zwitterion Form II]
relative stability of crystal forms [2]: more stable than solabegron zwitterion Form I | relative stability of crystal forms ([2]; listed as form II solabegron zwitterion): more stable than the form I solabegron zwitterion

O=C(O)c1cccc(-c2cccc(NCCNC[C@H](O)c3cccc(Cl)c3)c2)c1 [solabegron zwitterion Form I]
crystal form resulting from slurry conditioning ([2]; starting with Form I alone or a mixture of Forms I and II, IPA/H2O with different ratio (FIG. 10)): Solabegron zwitterion Form II resulted from all tested conditions

O=C(O)c1cccc(-c2cccc(NCCNC[C@H](O)c3cccc(Cl)c3)c2)c1 [solabegron, 3′-[(2-{[(2R)-2-(3-chlorophenyl)-2-hydroxyethyl]amino}ethyl)amino]biphenyl-3-carboxylic acid]
safety and tolerability; adverse events as compared to placebo [3]: safe, well tolerated, and does not demonstrate significant differences in adverse events as compared to placebo | symptoms of OAB [3]: significantly reduced the symptoms of OAB
